Data reported in US20210002725A1, “METHODS FOR THE DIAGNOSIS OF METABOLIC DISORDERS USING EPIMETABOLIC SHIFTERS, MULTIDIMENSIONAL INTRACELLULAR MOLECULES, OR ENVIRONMENTAL INFLUENCES” (Berg LLC, priority 2009, published 2021).

Tested on: ATP Citrate Lyase (ACL)
Test: Western blot of ATP Citrate Lyase levels in cells treated with Coenzyme Q10
Assay type: cell-based, human
Conditions: for ATP Citrate Lysase band Normalized Intensity: 48 h
Protocol: The whole cell pellets were resuspended one at a time in 1 mL of C7 buffer and transferred to labeled 15 mL tubes. The samples were then sonicated in the cold room on ice using 6 sonic pulses with the setting at #14. The samples were spun for a short time to 2500 g after sonication and the samples transferred to 2 ml tubes. The pH was verified of each sample (pH should be 9.0) using the foam remaining in the […] sample tubes.
After transfer each of the blots was placed in between 2 Whatman Filter papers and dried for 15-20 minutes. After drying the blots were labeled with the date, the type of samples and either blot 1 or blot 2 using a HB pencil. The molecular weight markers were outlined with the pencil and with single lines for the blue and a doublet for the colored markers. The blots were activated with methanol for 5 seconds, washed with water for 5 minutes, and TBST for 15 minutes. The blots were blocked for 1 hour with 5% blocking reagent in TBS-T at room temperature and then washed 3 times with TBS-T (1×-15′; 2×5′ each). Blot 1 was probed with the primary antibody for IDH1 (Cell Signaling #3997) in TBST with 5% BSA (at 1:1000 dilutions) and blot 2 with the rabbit polyclonal antibody for ATP Citrate Lyase in 5% BSA (Cell Signaling #4332) at 1:1000 dilution by incubation overnight at 4 deg C. with shaking. After the overnight incubation with primary antibodies, the blots were washed 3 times with TBS-T (1×-15′; 2×5′ each) and probed with the secondary antibody (antirabbit; 1:10,000 dilution) for 1 hon the orbital tilting shaker at room temperature. After 1 h of incubation with secondary antibodies, the blots were washed 3 times with TBS-T (1×-15′; 2×5′ each) and then incubated with ECF reagent for 5 mins and then each blot scanned with 5100 Fuji Laser scanner at 25 uM resolution, 16 bit, green laser, at 400V and at 500 V.
The samples were processed and run on a 4-12% Bis-Tris Novex NuPAGE gel as described above. The gels were run, transferred and stained essentially as described above.
The Isocitrate dehydrogenase blot was stripped by incubating for 30 minutes with methanol, followed by two 10 minute washes with TBS-T, then 30 minutes of incubation with stripping buffer at 50 deg C., and followed by two washes with 100 ml or more of TBS-T for 30′ each. The blot was scanned in laser scanner to check for complete stripping. The blot was activated with methanol for 5 seconds, washed with water for 5 minutes, and TBST for 15 minutes. The blot was blocked for 1 hour with 5% blocking reagent in TBS-T at room temperature and then washed 3 times with TBS-T (1×-15′; 2×5′ each). This was then probed with the rabbit polyclonal antibody for ATP Citrate Lyase in 5% BSA (Cell Signaling #4332) at 1:1000 dilution overnight at 4 deg C. with shaking. After the overnight incubation with primary antibody for ATP Citrate Lyase, the membrane was washed 3 times with TBS-T (1×-15′; 2×5′ each) and probed with the secondary antibody (antirabbit; 1:10,000 dilution) for 1 h on the orbital tilting shaker at room temperature. After 1 h of incubation with secondary antibodies, the blot was washed 3 times with TBS-T (1×-15′; 2×5′ each) and then incubated with ECF reagent for 5 minutes and then each blot scanned with 5100 Fuji Laser scanner at 25 uM resolution, 16 bit, green laser, at 400V and at 500 V.
In this experiment (western blot experiment 3), and in all of the experiments described below in this Example (i.e., western blot experiments 4 through 9), the cells were additionally treated with either 5 mM glucose (“5G”) or 22 mM glucose (“22G”). The samples derived from the cells were processed and run on a 4-12% Bis-Tris Novex NuPAGE gel as described above. The gels were run, transferred and stained essentially as described above.
The levels of IDH1, ATP citrate lyase and actin levels were determined by probing the blots with primary antibodies for IDH1, ATP citrate lyase and actin, essentially as described above.

Compound: COC1=C(OC)C(=O)C(C/C=C(\C)CC/C=C(\C)CC/C=C(\C)CC/C=C(\C)CC/C=C(\C)CC/C=C(\C)CC/C=C(\C)CC/C=C(\C)CC/C=C(\C)CCC=C(C)C)=C(C)C1=O [Q10, Coenzyme Q10]
- ATP Citrate Lysase band Normalized Intensity (HASMC (Table 34), 5 g, 50 μM): 23341
- ATP Citrate Lysase band Normalized Intensity (HASMC (Table 34), 5 g, 100 μM): 25544
- ATP Citrate Lysase band Normalized Intensity (HASMC (Table 34), 22 G, 50 μM): 21439
- ATP Citrate Lysase band Normalized Intensity (HASMC (Table 34), 22 G, 100 μM): 19491
- ATP Citrate Lysase band Normalized Intensity (HASMC (Table 35), 5 g, 50 μM): 12056
- ATP Citrate Lysase band Normalized Intensity (HASMC (Table 35), 5 g, 100 μM): 15265
- ATP Citrate Lysase band Normalized Intensity (HASMC (Table 35), 22 G, 50 μM): 15857
- ATP Citrate Lysase band Normalized Intensity (HASMC (Table 35), 22 G, 100 μM): 13892
- ATPCL Average Normalized Intensity (HDFa, 50 μM): ~7500
- ATPCL Average Normalized Intensity (HDFa, 100 μM): ~25000
- ATP Citrate Lysase band Normalized Intensity (HepG2, 5 g, 50 μM): 24106
- ATP Citrate Lysase band Normalized Intensity (HepG2, 5 g, 100 μM): 22463
- ATP Citrate Lysase band Normalized Intensity (HepG2, 22 G, 50 μM): 31235
- ATP Citrate Lysase band Normalized Intensity (HepG2, 22 G, 100 μM): 50588
- ATPCL Average Normalized Intensity (MCF-7, 50 μM): ~7500
- ATP Citrate Lysase band Normalized Intensity (PACA2, 5 g, 50 μM): 8027
- ATP Citrate Lysase band Normalized Intensity (PACA2, 5 g, 100 μM): 4942
- ATP Citrate Lysase band Normalized Intensity (PACA2, 22 G, 50 μM): 9537
- ATP Citrate Lysase band Normalized Intensity (PACA2, 22 G, 100 μM): 14901
